In article PMC5118987 (Antimicrobial Agents and Chemotherapy, 2016):
Read-outs that look alike come from different tables or passages of the source.

Key:
[1] = target: T1, HIV-1 IN strand transfer activity (Human immunodeficiency virus type 1 group M subtype B, UniProt P04585); assay: IN strand transfer assay (HTRF); assay type: biochemical; conditions: purified recombinant HIV-1 IN; mean ± SD, 3 experiments; read-out: IC50 Inhibition of strand transfer
T1 construct: Recombinant IN containing an N-terminal 6His tag was expressed in BL21(DE3) pLysS bacteria; 6His (N); made in house; host or cells: E. coli BL21(DE3) pLysS
Experimental: (§1) The strand transfer activity of IN was measured using an assay based on homogeneous time-resolved fluorescence resonance energy transfer (HTRF) ([34]) and has been previously described in detail ([35]). An HTRF-based 3′-processing assay was performed essentially as described for the IN strand transfer assay using a specially designed nonprocessed donor DNA in the absence of target DNA ([35]).

[2] = system: HBV Production; assay: microbe, parasite or virus in culture; conditions: Hepatitis B virus
[3] = system: HIV-1 integration in MT-2 cells (HIV-1 IIIb); conditions: HIV-1 IIIb-infected MT-2, relative to mock-treated control
Experimental: Quantification of 2-long terminal repeat (LTR) circles, late reverse transcription products, and integration junctions was adapted from a previously described method ([30]). […] Three hours after viral adsorption, the infected cells were washed twice with 20 ml of RPMI 1640 medium containing 10% FBS and antibiotics and seeded in 6-well plates in 2 ml of culture medium at 1 × 10^6 cells per well. […] These plates were incubated at 37°C for either 12 h (for late reverse transcription product quantification) or 24 h (for 2-LTR circle and Alu-LTR product quantification), after which time the cells were harvested for total DNA isolation. DNA was extracted from each well using the QIAamp DNA minikit (Qiagen, Valencia, CA) and collected as a 100-μl eluate. TaqMan real-time PCR-quantified 2-LTR junctions (2-LTR circles), late reverse transcription products, and integration junctions (Alu-LTR) were normalized to the level of host globin gene in each sample. Quantification by PCR was performed on the ViiA 7 real-time PCR system (Life Technologies, Grand Island, NY).

[4] = system: HCV 1b Replicon; assay: Anti-HCV activity, HCV 1b replicon; conditions: Hepatitis C virus, Huh-7
[5] = system: HIV-1 BaL; assay: Antiviral assay in primary CD4+ T lymphocytes (p24 ELISA); conditions: Human immunodeficiency virus 1, BAL
From the text: Freshly isolated human peripheral blood mononuclear cells (PBMCs) were obtained from healthy volunteers (supplied by AllCells, Inc., Alameda, CA). Blood donors were negative for HIV-1, hepatitis B, and hepatitis C viral infections. CD4^+ T lymphocytes were isolated by negative selection using a magnetically labeled antibody cocktail ([sequence] Technologies Inc., Vancouver, Canada) and cultured in RPMI cell culture media (Life Technologies, Grand Island, NY) supplemented with 10% FBS. CD4^+ T cells were activated for 48 h at 37°C by addition of 1 μg/ml phytohemagglutinin (PHA; Sigma, St. Louis, MO) and 5 ng/ml interleukin-2 (IL-2; Roche Diagnostics, Indianapolis, IN).
A 3-fold serial dilution of test compounds in RPMI medium was added to triplicate wells and incubated at 37°C for 5 days. Human monocytes were seeded on 96-well plates at a density of 3 × 10^5 cells per well, differentiated into adherent macrophages, and then infected with HIV-1 BaL virus in 50 μl RPMI for 3 h at 37°C. […] The supernatants derived from the CD4^+ T-cell and macrophage cultures were harvested 6 and 12 days postinfection, respectively, and the amount of HIV present was quantified by p24 enzyme-linked immunosorbent assay (ELISA) (PerkinElmer, Waltham, MA).

[6] = target: T2, HIV-1 IN 3′-processing activity (Human immunodeficiency virus type 1 group M subtype B, UniProt P04585); assay: IN 3′-processing assay (HTRF); assay type: biochemical; conditions: purified recombinant HIV-1 IN; mean ± SD, 5 experiments
T2 construct: Recombinant IN containing an N-terminal 6His tag was expressed in BL21(DE3) pLysS bacteria; 6His (N); made in house; host or cells: E. coli BL21(DE3) pLysS
Experimental: as §1

[7] = system: HIV-1 clinical isolates; assay: Antiviral assay against HIV-1 clinical isolates in fresh human PBMCs (RT endpoint)
[8] = system: HIV-1 IIIb; assay: Antiviral assay in MT-4 cells; assay type: cell-based; conditions: Human immunodeficiency virus 1, MT4, 120 h, 5 days
Experimental: For the antiviral assay utilizing MT-2 and MT-4 cells, 50 μl of a 2× test concentration of 5-fold serially diluted compound in culture medium with 10% FBS was added to each well of a 96-well plate (9 concentrations) in triplicate. MT-2 and MT-4 cells were infected with HIV-1 IIIb at a multiplicity of infection (MOI) of 0.01 for 3 h. Fifty microliters of infected cell suspension in culture medium with 10% FBS (∼1.5 × 10^4 cells) then was added to each well containing 50 μl of diluted compound. The plates were then incubated at 37°C for 5 days. After 5 days of incubation, 100 μl of CellTiter-Glo reagent (Promega Biosciences, Inc., Madison, WI) was added to each well containing MT-2 or MT-4 cells. Cell lysis was carried out by incubation at room temperature for 10 min and chemiluminescence was read. For compound cytotoxicity assessment, the protocol was identical except that uninfected cells were used and compounds were serially diluted 3-fold.

[9] = system: HIV-1 IIIb
Experimental: Each compound series was prepared several times independently in quadruplicate to capture the variations in Hill slope associated with preparation of compound serial dilutions. The assay was performed in a 384-well format. MT-4 cells were infected in bulk at the same MOI as that described above, and the plates were developed with CellTiter-Glo reagent 5 days postinfection.

[10] = system: HIV-1 IIIb; assay: HIV breakthrough selection in MT-2 cells; conditions: MT-2, HIV-1 IIIb; FTC 4× EC95, EVG 5× EC95, BIC and DTG 2.5× and 5× EC95; up to day 32
[11] = in vitro; conditions: human, 6 days
From the text: Freshly isolated human peripheral blood mononuclear cells (PBMCs) were obtained from healthy volunteers (supplied by AllCells, Inc., Alameda, CA). Blood donors were negative for HIV-1, hepatitis B, and hepatitis C viral infections. CD4^+ T lymphocytes were isolated by negative selection using a magnetically labeled antibody cocktail ([sequence] Technologies Inc., Vancouver, Canada) and cultured in RPMI cell culture media (Life Technologies, Grand Island, NY) supplemented with 10% FBS. CD4^+ T cells were activated for 48 h at 37°C by addition of 1 μg/ml phytohemagglutinin (PHA; Sigma, St. Louis, MO) and 5 ng/ml interleukin-2 (IL-2; Roche Diagnostics, Indianapolis, IN). […] Human PBMCs were used for cytotoxicity assays after culturing for 48 h in either complete RPMI medium alone (resting conditions) or RPMI containing 1 μg/ml PHA and 5 ng/ml IL-2 (activated conditions).

[12] = system: RSV strain A2; assay: microbe, parasite or virus in culture; assay type: cell-based, respiratory syncytial virus; conditions: human respiratory syncytial virus, HEp-2

SMILES: O=C(NCc1c(F)cc(F)cc1F)c1cn2c(c(O)c1=O)C(=O)N1[C@H]3CC[C@H](C3)O[C@@H]1C2 [BIC, Bictegravir]
- IC50 [1]: 7.5 ± 0.3 nM
- EC50 [2]: > 50000 nM
- reduction of authentic integration products in infected cells [3]: 100 fold
- EC50 [4]: > 44000 nM
- EC50 [5]: 1.5 ± 0.3 nM
- IC50 [6]: 241 ± 51 nM
- EC50 ([7]; Human immunodeficiency virus 1, BAL, PBMC, HIV-1 subtype B isolate BaL, human PBMCs): 0.35 ± 0.12 nM
- EC50 ([7]; Human immunodeficiency virus 1, PBMC, HIV-1 subtype A isolate 92RW016, human PBMCs): 0.71 ± 0.26 nM
- EC50 ([7]; Human immunodeficiency virus 1, PBMC, HIV-1 subtype A isolate 92UG037, human PBMCs): 1.5 ± 0.6 nM
- EC50 ([7]; Human immunodeficiency virus 1, PBMC, HIV-1 subtype B isolate 89BZ_167, human PBMCs): 1 ± 0.5 nM
- EC50 ([7]; Human immunodeficiency virus 1, PBMC, HIV-1 subtype B isolate 91US001, human PBMCs): 0.89 ± 0.17 nM
- EC50 ([7]; Human immunodeficiency virus 1, PBMC, HIV-1 subtype B isolate 91US004, human PBMCs): 1.2 ± 0.4 nM
- EC50 ([7]; Human immunodeficiency virus 1, PBMC, HIV-1 subtype C isolate 93IN905, human PBMCs): 0.15 ± 0.01 nM
- EC50 ([7]; Human immunodeficiency virus 1, PBMC, HIV-1 subtype C isolate 98US_MSC5016, human PBMCs): 1.2 ± 0.2 nM
- EC50 ([7]; Human immunodeficiency virus 1, PBMC, HIV-1 subtype D isolate 98UG_57128, human PBMCs): 0.33 ± 0.01 nM
- EC50 ([7]; Human immunodeficiency virus 1, PBMC, HIV-1 subtype E isolate 96TH_M02138, human PBMCs): 0.51 ± 0.17 nM
- EC50 ([7]; Human immunodeficiency virus 1, PBMC, HIV-1 subtype E isolate 96TH_NI1046, human PBMCs): 0.25 ± 0.06 nM
- EC50 ([7]; Human immunodeficiency virus 1, PBMC, HIV-1 subtype F isolate 93BR020, human PBMCs): 1.2 ± 0.5 nM
- EC50 ([7]; Human immunodeficiency virus 1, PBMC, read-out: mean EC50 against clinical isolates, 14 HIV-1 isolates and one HIV-2 isolate, human PBMCs): 0.81 nM
- EC50 ([7]; Human immunodeficiency virus 1, PBMC, read-out: range of EC50s against clinical isolates, 14 HIV-1 isolates and one HIV-2 isolate, human PBMCs): 0.04 to 1.7 nM
- EC50 [8]: 2.4 ± 0.4 nM
- PAEC95 (protein binding-adjusted EC95) ([9]; EC95 in MT-4 with human serum shift): 361 nM
- EC95 ([9]; MT-4 cells, calculated using Hill slope): 8.3 nM
- day postinfection of HIV-1 breakthrough [10]: no virus breakthrough was observed
- CC50 ([11]; CC50, Activated PBMCs (IL-2/PHA 2 days)): 5700 nM
- CC50 ([11]; CC50, Resting PBMCs): 8400 nM
- EC50 [12]: > 50000 nM
